Measurements taken from patent publication US20250368624A1, “M24B AMINOPEPTIDASE INHIBITORS FOR CARD8 INFLAMMASOME ACTIVATION” (Memorial Sloan-Kettering Cancer Center, priority 2022, published 2025).

How the values were obtained:
XPNPEP1 = XPNPEP1 (Homo sapiens (Human), UniProt Q9NQW7); assay: XPNPEP1 substrate assay (H-Lys(abz)-Pro-Pro-pNA); format: biochemical; details: for IC50: XPNPEP1 3.5 nM, substrate 100 μM, 60 mins
[1] = De-esterification in cell culture; format: in vitro ADME; details: after 24 h
[2] = Stability in cell culture supernatants; format: in vitro ADME; details: cell culture supernatants
human resting T cells = assay: GSDMD cleavage in human resting T cells; format: cell-based; details: 20 μM, 24 h
From the text: Human primary cell isolation and culture. Isolated human primary cells were obtained from Astarte Biologics. All cells were >90% purity, as validated by flow cytometry by Astarte Biologics. T cells were thawed in RPMI-1640 medium supplemented with 10% FBS and cultured in RPMI-1640 medium, 10% fetal bovine serum (FBS), and 30 U/mL IL-2 (Peprotech).
LDH cytotoxicity and immunoblotting assays. HEK293T cells were transiently transfected and treated with inhibitors as indicated. MV4;11, OCI AML2, THP-1, and RAW264.7 cells were plated in 12-well culture plates at 5×10^5 cells/well and treated as indicated. Supernatants were analyzed for LDH activity using the Pierce LDH Cytotoxicity Assay Kit (Life Technologies). LDH activity was quantified relative to a lysis control where cells were lysed in 80 μL of a 9% Triton X-100 solution. For immunoblotting, cells were washed 2× in PBS (pH=7.4), resuspended in PBS, and lysed by sonication. Protein concentrations were determined and normalized using the DCA Protein Assay kit (Bio-Rad). The samples were separated by SDS-PAGE, immunoblotted, and visualized using the Odyssey Imaging System (Li-Cor).

OCI-AML2 cells = assay: Propidium iodide uptake, OCI-AML2 cells; format: cell-based; details: 6.25 μM, compared to CQ31
Protocol: Propidium iodideflux analysis. 2×10^4 MV4;11 or OCI-AML2 cells were plated in 384-well, black, clear-bottom plate (Corning) in RPMI medium. Cells were then treated as indicated and propidium iodide (PI) was added at a final concentration of 10 μM. PI fluorescence was measured at (Ex/Em: 535/617 nm) recorded at 37° C. every 5 mins in a Cytation 5 Cell Imaging Multi-Mode Reader (BioTek). The obtained measurements were baseline corrected to vehicle/DMSO and normalized to maximum response.

Sequence of XPNPEP1 (Q9NQW7 whole entry): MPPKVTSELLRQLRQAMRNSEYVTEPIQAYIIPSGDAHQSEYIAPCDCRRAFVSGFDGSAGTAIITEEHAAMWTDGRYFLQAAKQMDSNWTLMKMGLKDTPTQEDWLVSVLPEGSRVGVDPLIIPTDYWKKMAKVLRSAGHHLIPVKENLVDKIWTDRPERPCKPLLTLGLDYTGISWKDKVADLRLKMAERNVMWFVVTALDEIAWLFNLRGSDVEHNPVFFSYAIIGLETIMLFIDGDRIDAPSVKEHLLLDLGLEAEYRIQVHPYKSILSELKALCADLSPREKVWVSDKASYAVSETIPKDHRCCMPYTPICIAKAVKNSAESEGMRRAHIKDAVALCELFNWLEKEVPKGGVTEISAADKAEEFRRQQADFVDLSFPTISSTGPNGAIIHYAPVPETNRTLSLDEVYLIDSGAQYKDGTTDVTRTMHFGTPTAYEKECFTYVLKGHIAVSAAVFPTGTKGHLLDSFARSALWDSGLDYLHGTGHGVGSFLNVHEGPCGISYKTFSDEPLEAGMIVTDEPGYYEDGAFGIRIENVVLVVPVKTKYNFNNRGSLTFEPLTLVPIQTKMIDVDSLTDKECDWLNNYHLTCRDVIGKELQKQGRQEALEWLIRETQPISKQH

| SMILES | XPNPEP1 inhibition (in words) (XPNPEP1) | IC50 (XPNPEP1) | de-esterification to CQ04 in cell culture [1] | time to conversion to CQ04 [2] | GSDMD cleavage (human resting T cells) | remained intact after 24 h ([2]; 24 h) | lytic cell death by uptake of propidium iodide (OCI-AML2 cells) |
| --- | --- | --- | --- | --- | --- | --- | --- |
| COC(=O)[C@@H]1CCCN1C(=O)[C@@H](O)[C@H](N)CC(C)C [CQ31] | inhibited PEPD and XPNPEP1 inhibitors similarly | 122 µM | completely de-esterified | ≤ 30 min | induced GSDMD cleavage |  |  |
| COC(=O)[C@H](CC(C)C)NC(=O)[C@@H]1CCCN1C(=O)[C@@H](O)[C@H](N)CC(C)C [CQ80, Methyl ((2S,3R)-3-amino-2-hydroxy-5-methylhexanoyl)-L-prolyl-L-leucinate] |  | 43 µM |  |  | induced GSDMD cleavage | ~50% | more rapid lytic cell death |
